Assays:
[1] = biological target: ERα ligand binding domain (Homo sapiens (Human), UniProt P03372); test: Competitive [3H]-estradiol radioligand binding, ERα (Example 21)
Method: (§1) ER binding affinity was determined via one of the following methods:
(§2) Briefly, the incubation mixture was filtered through a high affinity protein binding filter, and washed several times to remove any unbound radioactivity. The filter plate was air dried and sealed on the bottom.
(§3) Following incubation, plates were harvested onto GF/B filters and radioactivity was measured with a TopCount NXT (PerkinElmer). Nonspecific binding was subtracted from total binding to yield specific binding.

[2] = biological target: ERβ ligand binding domain (Homo sapiens (Human), UniProt Q92731); test: Competitive [3H]-estradiol radioligand binding, ERβ (Example 21); details: ratio between the binding constants of ER-α and ER-β
Method: as §1, §2, §3

ER-α = ER-α (Rattus norvegicus (Rat), UniProt P06211); type: cell-based; details: 100 nM NRBA compared to 1 nM estradiol
Method: COS or 293 cells were plated in DME without phenol red+10% cs FBS at 90,000 cells per well in 24 well plates, and were transfected with 0.25 μg of the vector “ERE-LUC”, where a firefly luciferase gene was driven by two estrogen responsive elements and 0.02 μg of the control CMV-LUC, Renilla where a luciferase gene was driven by a CMV promoter. […] All the receptors were cloned from rat tissue into the PCR3.1 vector backbone. Twenty four hours post transfection, cells were treated with compounds of this invention, estrogen, DHT, and other NRBAs or combinations thereof. Cells were harvested 48 hrs after transfection, and assayed for firefly and Renilla luciferase activity.

paw edema = test: Carrageenan-induced paw edema (acute inflammation model); type: in vivo; details: per-oral, 1 hr prior to Carrageenan challenge; measured 4 hours post-Carrageenan injection
Method: FIG. 14 depicts the effect of 12b on the edema volume which was induced by Carrageenan (i.e. Carrageenan-induce raw paw edema as an acute inflammation model).
To determine the anti-inflammatory effects of ER-β NRBAs in vivo, animal paws were injected with carrageenan, which elicits an acute local inflammatory response. Per-oral treatment of 12b.

[3] = system: LNCaP prostate cancer cells; test: LNCaP prostate cancer cell proliferation (3H thymidine incorporation); type: cell-based; details: treated for 6 days, FIG. 21
Method: (§4) The effects of treatment of an ER-β selective NRBA of this invention on cancer cell proliferation was examined using LNCaP prostate cancer cells and C-26 colon cancer cells. LNCaP or C-26 cells were plated in growth medium in 24 well and 6 well plates, respectively. LNCaP cells were treated for 6 days and C-26 cells were treated for 3 days at the indicated concentration. ^3H thymidine incorporation was measured at the end of treatment as an indicator of cell proliferation.

C-26 colon cancer cells = test: C-26 colon cancer cell proliferation (3H thymidine incorporation); type: cell-based; details: treated for 3 days, FIG. 22
Method: as §4

[4] = system: LNCaP cells and human prostate stromal cells xenograft; test: LNCaP-stromal cell xenograft tumor growth; type: in vivo, nude mice; details: 30 mg/kg/day for 21 days, by day 21
Method: Prostate tumor xenografts were established with LNCaP cells and human prostate stromal cells in nude mice to establish the in vivo anti-proliferative effects of these ER-β NRBAs. A 4:1 ratio (based on cell number) of LNCaP:stroma cells was injected subcutaneously in nude mice and allowed to grow until they attained 100 mm^3 in volume, as measured by calipers. […] Tumor volumes were measured twice a week and percent tumor volume calculated, after 10, 14 and 21 days.

uterus = test: Uterotropic assay; details: 10 mg/kg/day orally, 3 days
Method: Statistical differences among groups were evaluated by one-way ANOVA. Rats were treated for 3 consecutive days and then sacrificed 24 h after the last dose. The body of the uterus was cut just above its junction with the cervix and at the junction of the uterine horns with the ovaries. The uterus was weighed with and without intrauterine fluid. Statistical comparisons were made between the weights of empty uteri.

[5] = system: Rat Aortic Smooth Muscle Cells (RASMC); test: RASMC cell proliferation assay (WST-1); details: 10 μM and 30 μM

Chain of ERα ligand binding domain (P03372 whole entry, looked up, species assumed, the tested form may be a part): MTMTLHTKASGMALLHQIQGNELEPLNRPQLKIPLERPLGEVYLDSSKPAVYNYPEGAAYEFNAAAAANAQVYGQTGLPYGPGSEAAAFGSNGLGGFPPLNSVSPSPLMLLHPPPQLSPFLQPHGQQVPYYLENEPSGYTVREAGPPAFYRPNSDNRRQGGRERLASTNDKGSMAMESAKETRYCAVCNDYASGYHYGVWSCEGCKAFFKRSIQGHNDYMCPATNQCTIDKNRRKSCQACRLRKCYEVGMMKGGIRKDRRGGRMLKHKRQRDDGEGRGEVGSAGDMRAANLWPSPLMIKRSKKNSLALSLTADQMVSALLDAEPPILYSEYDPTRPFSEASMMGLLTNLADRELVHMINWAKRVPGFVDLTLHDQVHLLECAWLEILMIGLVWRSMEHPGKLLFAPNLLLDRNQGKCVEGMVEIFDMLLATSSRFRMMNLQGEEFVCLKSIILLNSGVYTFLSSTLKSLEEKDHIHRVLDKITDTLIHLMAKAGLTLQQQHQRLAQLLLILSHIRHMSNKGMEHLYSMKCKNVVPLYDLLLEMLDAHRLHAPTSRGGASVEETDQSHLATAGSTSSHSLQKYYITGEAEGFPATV
Chain of ERβ ligand binding domain (Q92731 264-498, species assumed): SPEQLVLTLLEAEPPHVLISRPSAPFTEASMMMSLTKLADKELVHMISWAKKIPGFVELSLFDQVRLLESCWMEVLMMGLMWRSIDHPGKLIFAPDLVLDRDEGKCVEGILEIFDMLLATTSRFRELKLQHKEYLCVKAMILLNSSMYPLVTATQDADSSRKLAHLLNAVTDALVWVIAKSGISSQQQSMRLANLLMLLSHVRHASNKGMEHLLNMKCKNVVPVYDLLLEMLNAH

Q: For `O=c1c2ccc(O)cc2c(Br)cn1-c1ccc(O)cc1` [Compound 12b, 4-bromo-6-hydroxy-2-(4-hydroxyphenyl)-isoquinolin-1(2H)-one], which Ki [1] is on record?
A: Its Ki is 998 nM.

Q: What about the “Ki Ratio (ER-α/ER-β)” value [2] of the same compound?
A: The value was 20.

Q: What about the “Estradiol activity at 100 nM, ER-α” value (ER-α) of the same compound?
A: Its value is 31.2%.

Q: What about the “reduction in paw edema” value (paw edema) of the same compound?
A: Its value is 53%.

Q: What about the “growth of LNCaP prostate cancer cells” value [3] of the same compound?
A: The value was “significantly inhibited the growth”.

Q: What about the “growth of C-26 colon cancer cells” value (C-26 colon cancer cells) of the same compound?
A: Its value is “significantly inhibited the growth”.

Q: What about the “tumor growth (percent tumor volume)” value [4] of the same compound?
A: The value was “inhibited the growth of tumor significantly”.

Q: For `CC/C(=C(\c1ccccc1)c1ccc(OCCN(C)C)cc1)c1ccccc1` [Tamoxifen, tamoxifen], which “uterine growth / uterine weight” value (uterus) is on record?
A: The value was “stimulated the proliferation of uterus significantly”.

Q: What about the “cell numbers compared to day 0” value [5] of the same compound?
A: Its value is “toxicity”.

Reference: patent US9623021B2, “Nuclear receptor binding agents” (GTX, Inc., priority 2007, dated 2017)
